From ChEMBL document CHEMBL1201862, “PubChem BioAssay data set” (2004) come the findings set out here.

The structures appear in SMILES notation.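 Dose response: 5 concentrations. Exposure: 48 h. Format: 96-well plates. Endpoint: linear interpolation; highest concentration if not reached. GI50 = concentration required for 50% inhibition of growth.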 Active and inactive are the calls of the source. Cut-off read from the data, not from the text of the source: active = GI50 up to about 1.1 µM and inactive = higher.

Some test systems named below: ACHN; CAKI-1; COLO 205; EKVX; HCC 2998; HCT-15; HT-29; K562; LOX IMVI; NCI-H460; RXF 393; SF-539; SK-MEL-2; SK-OV-3; SN12C; UACC-62; UO-31; SR.
Holding throughout (test): NCI-60 cell line screen, 48 h

With `Cc1ccccc1/C=N/C12CC3CC(CC(C3)C1)C2`, the GI50 with ACHN was > 100 µM (inactive); with CAKI-1 it was > 100 µM (inactive); in the assay on COLO 205, > 100 µM (inactive); in the assay on EKVX, > 100 µM (inactive); with HCC 2998, > 100 µM (inactive); in the assay with HCT-15 it was > 100 µM. The GI50 in the assay with HT-29, in the assay with K562, with LOX IMVI, in the assay on NCI-H460, in the assay on RXF 393 and with SF-539 was > 100 µM (inactive) each time. The GI50 with SK-MEL-2, in the assay on SK-OV-3, with SN12C, in the assay with UACC-62 and in the assay on UO-31 was > 100 µM (inactive) in each case.
With `O=C(CCN1CCCC1)CC(c1ccccc1)c1c(O)c2ccccc2oc1=O` (centres undefined), the GI50 is > 100 µM (inactive) in the assay on ACHN; > 100 µM (inactive) in the assay on COLO 205; > 100 µM (inactive) in the assay on EKVX; > 100 µM (inactive) in the assay with HCC 2998; > 100 µM in the assay with HCT-15; > 100 µM (inactive) in the assay with HT-29. The GI50 in the assay on K562, in the assay on LOX IMVI, with NCI-H460, in the assay on RXF 393, with SK-MEL-2 and in the assay with SK-OV-3 was > 100 µM (inactive) each time. In addition, the GI50 in the assay on SN12C, in the assay on SR, in the assay with UACC-62 and in the assay on UO-31 was > 100 µM (inactive) throughout.
On to `C=CCn1c(=O)c(C(=O)NC(=O)OCC)cn(C2CCCCC2)c1=O`, for which the GI50 was > 100 µM (inactive) with ACHN; > 100 µM (inactive) in the assay with CAKI-1; > 100 µM (inactive) in the assay with COLO 205; > 100 µM (inactive) with EKVX; > 100 µM (inactive) with HCC 2998; > 100 µM in the assay on HCT-15. Moreover, the GI50 in the assay on HT-29, in the assay with K562, in the assay with LOX IMVI, in the assay on NCI-H460, in the assay on SF-539 and with SK-MEL-2 was > 100 µM (inactive) throughout. The GI50 with SK-OV-3, in the assay on SN12C, in the assay on SR, in the assay with UACC-62 and in the assay with UO-31 was > 100 µM (inactive) in each case.
Regarding `Cc1ccc(N2C(=O)CS/C2=C(\C#N)c2nc3ccccc3[nH]2)cc1`, the GI50 in the assay with ACHN is > 100 µM (inactive); in the assay with CAKI-1, > 100 µM (inactive); with COLO 205 it was > 100 µM (inactive); in the assay on EKVX, > 100 µM (inactive); in the assay on HCC 2998, > 100 µM (inactive); in the assay on HCT-15 it was > 100 µM. Also, the GI50 with K562, with LOX IMVI, in the assay on NCI-H460, in the assay on SF-539, in the assay with SK-MEL-2 and in the assay with SN12C was > 100 µM (inactive) in each case. Also, the GI50 with SR is > 100 µM (inactive); in the assay with UACC-62, 16.1 µM (inactive); in the assay with UO-31, > 100 µM (inactive).
Consider `O=C(O)OC12CCCCCC1C(=O)C1CCCCC12` (centres undefined), for which the GI50 in the assay with ACHN was > 100 µM (inactive); in the assay with COLO 205 it was > 100 µM (inactive); with EKVX, 82.4 µM (inactive); with HCT-15 it was 78.2 µM; with HT-29 it was > 100 µM (inactive); with K562 it was 42 µM (inactive). Besides, the GI50 in the assay with LOX IMVI was > 100 µM (inactive); in the assay on NCI-H460, 77.4 µM (inactive); in the assay on RXF 393, 39.3 µM (inactive); with SK-MEL-2, > 100 µM (inactive); in the assay with SK-OV-3, > 100 µM (inactive); with SN12C, > 100 µM (inactive). In addition, the GI50 in the assay with SR was 47 µM (inactive); in the assay on UACC-62 it was 71.3 µM (inactive); in the assay on UO-31, > 100 µM (inactive).
For the compound `CCCCn1c2ccccc2c2ccc3c(c21)C(=O)C=CC3=O`, the GI50 is > 100 µM (inactive) in the assay with ACHN; > 100 µM (inactive) in the assay on CAKI-1; > 100 µM (inactive) in the assay on COLO 205; > 100 µM (inactive) in the assay on HCC 2998; > 100 µM with HCT-15; 0.991 µM (active) with HT-29. Moreover, the GI50 is 84.3 µM (inactive) in the assay with K562; > 100 µM (inactive) in the assay on LOX IMVI; > 100 µM (inactive) in the assay with NCI-H460; > 100 µM (inactive) in the assay with SF-539; > 100 µM (inactive) in the assay on SK-MEL-2; > 100 µM (inactive) with SK-OV-3. The GI50 in the assay on SN12C is > 100 µM (inactive); in the assay on SR, > 100 µM (inactive); in the assay with UACC-62, > 100 µM (inactive); in the assay on UO-31, 62.2 µM (inactive).
As to `Cc1ccc(-c2cc(=O)c3cc(C)c(C)c(C(=O)O)c3o2)cc1[N+](=O)[O-]`, the GI50 was > 100 µM (inactive) in the assay with ACHN; > 100 µM (inactive) in the assay on CAKI-1; > 100 µM (inactive) in the assay on COLO 205; > 100 µM (inactive) in the assay on EKVX; > 100 µM with HCT-15; > 100 µM (inactive) in the assay on HT-29. Also, the GI50 with K562, in the assay with LOX IMVI, in the assay with NCI-H460, with RXF 393, in the assay with SF-539 and in the assay with SK-MEL-2 was > 100 µM (inactive) throughout. The GI50 in the assay on SK-OV-3, in the assay on SN12C, in the assay with UACC-62 and in the assay with UO-31 was > 100 µM (inactive) in each case.
With `COC(=O)C(C(=O)C(=O)Nc1ccc([N+](=O)[O-])cc1[N+](=O)[O-])c1nc2ccc(Cl)cc2nc1O` (centres undefined), the GI50 with ACHN was 65 µM (inactive); in the assay with CAKI-1, > 100 µM (inactive); with COLO 205, > 100 µM (inactive); in the assay with EKVX it was 40.8 µM (inactive); with HCC 2998, > 100 µM (inactive); in the assay on HCT-15, > 100 µM. Moreover, the GI50 in the assay on HT-29 is > 100 µM (inactive); in the assay with K562 it was > 100 µM (inactive); in the assay on LOX IMVI, > 100 µM (inactive); in the assay with NCI-H460, > 100 µM (inactive); in the assay on RXF 393, 30.5 µM (inactive); in the assay on SF-539, > 100 µM (inactive). Besides, the GI50 with SK-MEL-2 is > 100 µM (inactive); with SK-OV-3, > 100 µM (inactive); with SN12C, > 100 µM (inactive); with UACC-62, > 100 µM (inactive); in the assay on UO-31, 41.1 µM (inactive).
As to `[O-][S+]1c2ccccc2N=C(c2cccs2)CC1c1ccccc1O` (centres undefined), the GI50 is > 100 µM (inactive) with ACHN; > 100 µM (inactive) with CAKI-1; > 100 µM (inactive) with COLO 205; > 100 µM (inactive) in the assay with EKVX; 96.6 µM (inactive) with HCC 2998; > 100 µM in the assay on HCT-15. For the same compound, the GI50 in the assay with HT-29 was > 100 µM (inactive); in the assay on K562, > 100 µM (inactive); in the assay on LOX IMVI, > 100 µM (inactive); in the assay with NCI-H460 it was > 100 µM (inactive); with RXF 393, 63.1 µM (inactive); in the assay on SF-539, > 100 µM (inactive). In addition, the GI50 in the assay with SK-MEL-2 is > 100 µM (inactive); with SK-OV-3, > 100 µM (inactive); with SN12C, > 100 µM (inactive); in the assay with UACC-62, 56.2 µM (inactive); in the assay with UO-31, > 100 µM (inactive).
For the compound `COc1cccc2c1N[S@](=O)S2`, the GI50 is > 100 µM (inactive) in the assay with ACHN; > 100 µM (inactive) in the assay on CAKI-1; > 100 µM (inactive) in the assay with EKVX; 82.4 µM in the assay with HCT-15; > 100 µM (inactive) in the assay on HT-29; 46 µM (inactive) in the assay on K562. In addition, the GI50 is 50.8 µM (inactive) in the assay on LOX IMVI; > 100 µM (inactive) with SF-539; > 100 µM (inactive) with SK-MEL-2; > 100 µM (inactive) in the assay on SK-OV-3; 63.5 µM (inactive) in the assay on SN12C; 70.6 µM (inactive) in the assay on SR. Moreover, the GI50 in the assay with UACC-62 was 38.6 µM (inactive); in the assay with UO-31 it was 42 µM (inactive).
Take `CCCOC(=O)C1CCC(=O)N1C(=O)C(Cl)Cl` (centres undefined): the GI50 in the assay on ACHN was > 100 µM (inactive); in the assay on CAKI-1, > 100 µM (inactive); in the assay on COLO 205, > 100 µM (inactive); with EKVX, > 100 µM (inactive); in the assay on HCC 2998, > 100 µM (inactive); in the assay with HCT-15, > 100 µM. Moreover, the GI50 in the assay on HT-29, in the assay on K562, with LOX IMVI, in the assay with NCI-H460, in the assay with SK-MEL-2 and in the assay with SK-OV-3 was > 100 µM (inactive) throughout. The GI50 in the assay with SN12C, in the assay with UACC-62 and in the assay with UO-31 was > 100 µM (inactive) each time.
Turning to `NC(=O)NC12CC3CC(CC(F)(C3)C1)C2`, the GI50 in the assay on ACHN, in the assay on COLO 205, in the assay with EKVX, in the assay on HCC 2998, in the assay on HT-29 and with K562 was > 100 µM (inactive) in each case. In addition, the GI50 in the assay on LOX IMVI, with NCI-H460, in the assay on RXF 393, in the assay on SF-539, in the assay with SK-MEL-2 and with SK-OV-3 was > 100 µM (inactive) each time. Further, the GI50 with UACC-62 and in the assay with UO-31 was > 100 µM (inactive) each time.
For `O=C1C[C@@H]2[C@@H](CCC23CC3)N1`, the GI50 in the assay on CAKI-1, in the assay on COLO 205, with EKVX, in the assay on HCC 2998, with HT-29 and in the assay on K562 was > 100 µM (inactive) throughout. Further, the GI50 in the assay with LOX IMVI, with NCI-H460, in the assay with RXF 393, with SF-539, with SK-MEL-2 and with SK-OV-3 was > 100 µM (inactive) throughout. Besides, the GI50 in the assay on SN12C, in the assay with UACC-62 and in the assay on UO-31 was > 100 µM (inactive) each time.
